Assay results published in patent US12279611B2, “Method for controlling insects where an alkoxylated glycerol is applied to soil” (priority 2016, dated 2025).
Where “and” joins values, the source holds several entries; their conditions need not be identical. Equal entries are not always repeated.

Legend:
[1] = Wetting front test with segment analysis (soil segments extracted with acetonitrile, broflanilide quantified by HPLC-UV); assay type: physicochemical; details: Example 3; for Concentration of broflanilide in segment 0-2 cm (average of four replicates): soil segment 0-2 cm; for Concentration of broflanilide in segment 2-4 cm (average of four replicates): soil segment 2-4 cm; for Concentration of broflanilide in segment 4-6 cm (average of four replicates): soil segment 4-6 cm; for Concentration of broflanilide in segment 6-8 cm (average of four replicates): soil segment 6-8 cm; for Concentration of broflanilide in segment 8-10 cm (average of four replicates): soil segment 8-10 cm
Description: A fine nylon netting was adhered (Polyseamseal® Caulk, Henkel Corp) to one end each of 15 cm×1.5 cm plastic tubes. Tubes were filled with Greenville silt loam (sand:silt:clay, 22:58:20). As soil was added, tubes were tapped on the lab bench to loosely pack the soil (approximately 50 g soil per tube). Aqueous solutions of subject treatments were prepared. Solutions (4 ml) were added to glass beakers (50 ml capacity), and the soil-filled tubes were placed in the beakers. Each treatment was replicated 4 times. The solutions migrated upward into the soil via capillary action, and after 20 hours, the wetting front was measured in three locations using a digital caliper. Means were separated at the […] via ANOVA followed by Tukey's HSD. An aqueous solution comprising 600 ppm broflanilide was made from an aqueous suspension concentrate comprising 100 g/l broflanilide. Optionally 3000 ppm of Polymer B was added. The wetting front test was made as described above with another analytical method: The soil filled tubes (four replicates for both the sample with and without polymer) were separated in seven segments with each 2 cm long. The segment “0-2 cm” was the segment on the bottom which had direct contact to the aqueous solution of broflanilide. The segments (about 4.0 g each) were extracted twice with acetonitrile. The amount of broflanilide was quantified via HPLC with UV detection.

[2] = Wetting front test (soil migration by capillary action in soil-filled tubes, wetting front measured by caliper); assay type: physicochemical; details: for Migration: single replicates
Description: • Polymer A: Polymer formed from glycerol and ethylene oxide and propylene oxide units; molecular weight about 3000 g/mol, hydroxyl number about 56 mg KOH/g, clear liquid, dynamic viscosity at 25° C. about 582 cP, density at 25° C. about 1.02 g/cm^3. • Polymer B: Liquid composition, 70 wt % Polymer A, 10 wt % nonionic surfactant (ethoxylated alcohol, HLB about 13, hydroxyl number about 125), 10 wt % anionic surfactant (dodecylbenzene calcium sulfonate), and 10 wt % 1,2-propylene glycol. • Surfactant A: liquid, nonionic ethoxylated tristyrylphenol, HLB 10-11. • Surfactant B: nonionic EO-PO-EO Triblockcopolymer, average molecular weight about 2500 Da, pour point −4° C., HLB 1-7, solubility in water at least 10 wt % at 25° C. • Surfactant C: Alkyl polyethylene glycol ether based on C10-Guerbet alcohol, HLB about 13, solubility in water at least 10 wt % at 23° C. • Surfactant D: Calcium dodecylbenzene sulfonate. • Silica Thickener: White powder, hydrophilic fumed silica, specific surface area (BET) about 200 m^2/g; average primary particle diameter 12 nm, tapped density about […]. Wetting Front Test Procedure
A fine nylon netting was adhered (Polyseamseal® Caulk, Henkel Corp) to one end each of 15 cm×1.5 cm plastic tubes. Tubes were filled with Greenville silt loam (sand:silt:clay, 22:58:20). As soil was added, tubes were tapped on the lab bench to loosely pack the soil (approximately 50 g soil per tube). Aqueous solutions of subject treatments were prepared. Solutions (4 ml) were added to glass beakers (50 ml capacity), and the soil-filled tubes were placed in the beakers. Each treatment was replicated 4 times. […] Means were separated at the […] via ANOVA followed by Tukey's HSD.

[3] = 600 ppm broflanilide + 3000 ppm Polymer B
[4] = 600 ppm broflanilide, no polymer
[5] = Example 2, 600 ppm broflanilide + 1500 ppm Polymer A, Greenville silt loam, 20 hours
[6] = Example 2, 600 ppm broflanilide + 3000 ppm Polymer A, Greenville silt loam, 20 hours
[7] = Example 2, 600 ppm broflanilide + 4200 ppm Polymer A, Greenville silt loam, 20 hours
[8] = Example 4, 600 ppm broflanilide + 300 ppm Polymer A, Greenville silt loam, 20 hours
[9] = Example 4, 600 ppm broflanilide + 600 ppm Polymer A, Greenville silt loam, 20 hours
[10] = Example 4, 600 ppm broflanilide + 1500 ppm Polymer A, Greenville silt loam, 20 hours
[11] = Example 4, 600 ppm broflanilide, no polymer, Greenville silt loam, 20 hours
[12] = Example 5, 600 ppm fipronil + 1200 ppm Polymer B, after 2 h
[13] = Example 5, 600 ppm fipronil + 1200 ppm Polymer B, after 20 h
[14] = Example 5, 600 ppm fipronil + 3000 ppm Polymer B, after 2 h
[15] = Example 5, 600 ppm fipronil + 3000 ppm Polymer B, after 20 h
[16] = Example 5, 600 ppm fipronil, no polymer, after 20 h
[17] = Example 1, 600 ppm chlorfenapyr + 1200 ppm Polymer B, Greenville silt loam, 20 hours
[18] = Example 1, 600 ppm chlorfenapyr + 3000 ppm Polymer B, Greenville silt loam, 20 hours

CN(C(=O)c1ccccc1)c1cccc(C(=O)Nc2c(Br)cc(C(F)(C(F)(F)F)C(F)(F)F)cc2C(F)(F)F)c1F [Broflanilide, broflanilide]
Concentration of broflanilide in segment 0-2 cm (average of four replicates) [1, 3]: 170 ppm | Concentration of broflanilide in segment 2-4 cm (average of four replicates) [1, 3]: 36 ppm | Concentration of broflanilide in segment 4-6 cm (average of four replicates) [1, 3]: 16 ppm | Concentration of broflanilide in segment 6-8 cm (average of four replicates) [1, 3]: 4 ppm | Concentration of broflanilide in segment 8-10 cm (average of four replicates) [1, 3]: 0 ppm | Concentration of broflanilide in segment 0-2 cm (average of four replicates) [1, 4]: 127 ppm | Concentration of broflanilide in segment 2-4 cm (average of four replicates) [1, 4]: 51 ppm | Concentration of broflanilide in segment 4-6 cm (average of four replicates) [1, 4]: 3 ppm | Concentration of broflanilide in segment 6-8 cm (average of four replicates) [1, 4]: 0 ppm | Concentration of broflanilide in segment 8-10 cm (average of four replicates) [1, 4]: 0 ppm | Average Migration [2, 5]: 9.29 cm | Migration [2, 5]: 8.89 cm and 9.34 cm (2×) and 9.6 cm | Average Migration [2, 6]: 8.74 cm | Migration [2, 6]: 8.53 cm and 8.62 cm and 8.60 cm and 9.19 cm | Average Migration [2, 7]: 8.79 cm | Migration [2, 7]: 8.37 cm and 9.22 cm and 8.74 cm and 8.82 cm | Average Migration [2, 8]: 7.78 cm | Migration [2, 8]: 7.90 cm and 7.72 cm and 7.71 cm and 7.80 cm | Average Migration [2, 9]: 7.98 cm | Migration [2, 9]: 7.98 cm and 7.77 cm and 8.04 cm and 8.02 cm | Average Migration [2, 10]: 7.72 cm | Migration [2, 10]: 7.73 cm and 7.69 cm and 7.82 cm and 7.64 cm | Average Migration [2, 11]: 6.89 cm | Migration [2, 11]: 7.32 cm and 6.75 cm and 6.61 cm and 6.88 cm

N#Cc1nn(-c2c(Cl)cc(C(F)(F)F)cc2Cl)c(N)c1[S+]([O-])C(F)(F)F (stereo not drawn) [Fipronil, fipronil]
Migration ([2]; Example 5, 600 ppm fipronil (Termidor SC), no polymer, after 2 h): 6.0 cm and 6.1 cm and 6.5 cm and 6.4 cm | Average Migration [2, 12]: 6.70 cm | Migration [2, 12]: 6.5 cm and 7.0 cm and 6.7 cm and 6.6 cm | Average Migration [2, 13]: 7.93 cm | Migration [2, 13]: 7.7 cm and 8.0 cm (3×) | Average Migration [2, 14]: 6.98 cm | Migration [2, 14]: 7.1 cm and 7.0 cm (2×) and 6.8 cm | Average Migration [2, 15]: 8.40 cm | Migration [2, 15]: 8.5 cm and 8.3 cm and 8.4 cm (2×) | Average Migration ([2]; Example 5, 600 ppm fipronil, no polymer, after 2 h): 6.25 cm | Average Migration [2, 16]: 7.38 cm | Migration [2, 16]: 7.0 cm and 7.4 cm (2×) and 7.7 cm

CCOCn1c(-c2ccc(Cl)cc2)c(C#N)c(Br)c1C(F)(F)F [Chlorfenapyr, chlorfenapyr]
Migration ([2]; Example 1, 600 ppm chlorfenapyr (Phantom SC), no polymer, Greenville silt loam, 20 hours): 7.7780 cm and 7.5100 cm and 7.6600 cm and 7.7640 cm | Average Migration [2, 17]: 8.39 cm | Migration [2, 17]: 8.3770 cm and 8.3350 cm and 8.4290 cm and 8.4350 cm | Average Migration [2, 18]: 8.81 cm | Migration [2, 18]: 8.7420 cm and 8.7610 cm and 8.8760 cm and 8.8460 cm | Average Migration ([2]; Example 1, 600 ppm chlorfenapyr, no polymer, Greenville silt loam, 20 hours): 7.68 cm
